In patent US4931429A, “α-aminoacyl β-aminoacyl aminodiols as anti-hypertensive agents” (G. D. Searle & Co., priority 1987, dated 1990):

Experiments:
Human renin = target: T1, Human renin (Homo sapiens, UniProt P00797); assay: human renin inhibition test; format: biochemical; settings: human plasma substrate, pH 7.4, two hours at 37° C., angiotensin I by radioimmunoassay
T1 construct: purchased National Institute for Biological Standards, London
T1 sequence (P00797 67-406): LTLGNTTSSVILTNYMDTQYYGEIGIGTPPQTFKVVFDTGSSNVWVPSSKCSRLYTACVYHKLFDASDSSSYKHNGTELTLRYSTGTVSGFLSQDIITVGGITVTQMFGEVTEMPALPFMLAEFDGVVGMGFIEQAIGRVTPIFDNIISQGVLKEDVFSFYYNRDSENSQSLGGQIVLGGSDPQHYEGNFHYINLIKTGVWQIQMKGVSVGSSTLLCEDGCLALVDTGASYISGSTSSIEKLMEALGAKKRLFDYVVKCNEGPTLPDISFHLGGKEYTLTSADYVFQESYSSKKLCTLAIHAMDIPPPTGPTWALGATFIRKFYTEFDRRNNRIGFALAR
Description: The human renin inhibition test has been previously described in detail in papaioannou, et al. (1985) Clinical and Experimental Hypertension A7(9), 1243-1257. Human renin was obtained from the National Institute for Biological Standards, London. In a total volume of 0.25 mL 100 mM Tris-acetate buffer at pH 7.4, 25 x 10-6 Goldblatt units of renin, 0.05 mL of plasma from human volunteers taking oral contraceptives, 6.0 mM sodium EDTA, 2.4 mM phenylmethyl sulfonyl fluoride, 1.5 mM 8-hydroxyquinoline, 0.4 mg/mL BSA, and 0.024 mg/mL neomycin sulfate were incubated for two hours at 37° C. in the presence or absence of renin inhibitors. The produced angiotensin I was determined by radioimmunoassay (New England Nuclear kit). Compounds of Formula I to be assayed were solubilized in either ethyl alcohol or DMSO and diluted with 100 mM Tris-acetate buffer at pH 7.4 to the appropriate concentration. The final concentration of organic solvent in the reaction mixture was less than 1%. Control incubations at 37° C. were used to correct for effects of organic solvent on renin activity.

Hog renin = assay: hog renin inhibition assay; format: biochemical; settings: synthetic tetradecapeptide substrate, pH 7.4, one hour at 37° C., angiotensin I by radioimmunoassay
Description: The hog renin inhibition assay was performed in a manner similar to the human renin assay, with the following modifications. Hog renin was purchased from Sigma Chemical Co. and the synthetic tetradecapeptide substrate was obtained from Peninsula Labs Inc. In a final volume of 0.25 mL 100 mM Tris-acetate buffer at pH 7.4, 0.125m units hog renin, 20 micromolar tetradecapetide, 6 mM disodium EDTA, 3.2 mM phenylmethyl sulfonyl fluoride, 3 mM 8-hydroxyquinoline, 1.2 mg/mL BSA and 0.024 mg/mL neomycin sulfate were incubated for one hour at 37° C. in the presence or absence of renin inhibitors. The amount of angiotensin I produced was determined as for the human renin inhibition assay.

SMILES | IC50 (Human renin) | IC50 (Hog renin)
CC(CNC(=O)[C@H](Cc1ccccc1)NC(=O)OC(C)(C)C)C(=O)N[C@@H](CC1CCCCC1)[C@@H](O)CO (stereo partly drawn) [Example 8, Boc-L-phenylalaninyl-D,L-α-methyl-β-alaninamide of (2S,3R)-2-amino-1-cylohexyl-3,4-dihydroxybutane] | 2 µM | 2.1 µM
CC(C)C[C@H](O)[C@H](O)[C@H](CC1CCCCC1)NC(=O)C(C)CNC(=O)[C@H](Cc1ccccc1)NC(=O)OC(C)(C)C (stereo partly drawn) [Example 9, Boc-L-phenylalaninyl-D,L-α-methyl-β-alaninamide of (2S,3R,4S)-2-amino-1-cyclohexyl-3,4-dihydroxy-6-methylheptane] | 0.21 µM | 0.0125 µM
